# Experimental data from patent US20110117154A1, “USE OF RIFALAZIL TO TREAT COLONIC DISORDERS” (ACTIVBIOTICS PHARMA, LLC, priority 2008, published 2011).
# System: C. difficile
# Experiment: CDAD treatment in hamsters infected with C. difficile
# Format: in vivo
# Settings: for survival of hamsters infected with C. difficile: treated at the time of infection
# Protocol: Optimal dosages and formulations of Rifalazil alone, or in combination with a second drug compound, can be determined using standard animal models known in the art. One example of an animal model for C. difficile associated disease is the Golden Syrian hamster. To determine the optimal dosage regimen of Rifalazil, Golden Syrian hamsters are injected subcutaneously with clindamycin phosphate (10 mg/kg) followed, 24 hours later, by oral gavage with 10^5 colony forming units (CFU) of C. difficile. Antibiotic treatment is then administered orally, either simultaneously or 24 hours after C. difficile administration Animals are monitored for survival, weight variations, identification of C. difficile toxins in cecal content, and histologic damage to ceca as compared to animals treated with a prophylactic protocol using standard methods known in the art (see, for example, Anton P. M. et al., Abstract ID No. 102471, Publishing ID No. T1741, presented at the American Gastroenterological Association Meeting, May 17-22, 2003; Anton P. M. et al., Gastroenterology 124:A558, 2003).
# Hamsters were infected with C. difficile, and at the time of infection, were also treated with vancomycin (50 mg/kg) or Rifalazil (2 mg/kg).
# [1] = microgranulated formulation, systemic administration, relatively high doses (FIG. 1)
SMILES,survival of hamsters infected with C. difficile (vancomycin 50 mg/kg),survival of hamsters infected with C. difficile (Rifalazil 2 mg/kg),relapses of CDAD in in vivo animal experiments [1],treatment of CDAD in in vivo animal experiments [1]
"CN[C@H](CC(C)C)C(=O)N[C@H]1C(=O)N[C@@H](CC(N)=O)C(=O)N[C@H]2C(=O)N[C@H]3C(=O)N[C@H](C(=O)N[C@H](C(=O)O)c4cc(O)cc(O)c4-c4cc3ccc4O)[C@H](O)c3ccc(c(Cl)c3)Oc3cc2cc(c3O[C@@H]2O[C@H](CO)[C@@H](O)[C@H](O)[C@H]2O[C@H]2C[C@](C)(N)[C@H](O)[C@H](C)O2)Oc2ccc(cc2Cl)[C@H]1O [vancomycin, reference compound]",eventually succumbed to the infection,–,–,–
"CO[C@H]1/C=C/O[C@@]2(C)Oc3c(C)c(O)c4c(=O)c(c5oc6cc(N7CCN(CC(C)C)CC7)cc(O)c6nc-5c4c3C2=O)NC(=O)/C(C)=C\C=C\[C@H](C)[C@H](O)[C@@H](C)[C@@H](O)[C@@H](C)[C@H](OC(C)=O)[C@@H]1C [Rifalazil, 3′-hydroxy-5′-(4-isobutyl-1-piperazinyl) benzoxazinorifamycin]",–,All animals treated with Rifalazil survived,no relapses were observed,effectively treated
